target: T1, P2X7 receptor (Homo sapiens, UniProt Q99572); assay: Alternate method for IL-1β release assay (differentiated THP-1 cells, BzATP-stimulated, ELISA); assay type: cell-based; settings: P2X7; 0.1 μM compound (plus symbols); read-out: IL-1β % inhib @ 0.1 μM
T1 construct: host or cells: THP-1 cells differentiated with LPS and IFN-γ
T1 sequence (Q99572 1-595): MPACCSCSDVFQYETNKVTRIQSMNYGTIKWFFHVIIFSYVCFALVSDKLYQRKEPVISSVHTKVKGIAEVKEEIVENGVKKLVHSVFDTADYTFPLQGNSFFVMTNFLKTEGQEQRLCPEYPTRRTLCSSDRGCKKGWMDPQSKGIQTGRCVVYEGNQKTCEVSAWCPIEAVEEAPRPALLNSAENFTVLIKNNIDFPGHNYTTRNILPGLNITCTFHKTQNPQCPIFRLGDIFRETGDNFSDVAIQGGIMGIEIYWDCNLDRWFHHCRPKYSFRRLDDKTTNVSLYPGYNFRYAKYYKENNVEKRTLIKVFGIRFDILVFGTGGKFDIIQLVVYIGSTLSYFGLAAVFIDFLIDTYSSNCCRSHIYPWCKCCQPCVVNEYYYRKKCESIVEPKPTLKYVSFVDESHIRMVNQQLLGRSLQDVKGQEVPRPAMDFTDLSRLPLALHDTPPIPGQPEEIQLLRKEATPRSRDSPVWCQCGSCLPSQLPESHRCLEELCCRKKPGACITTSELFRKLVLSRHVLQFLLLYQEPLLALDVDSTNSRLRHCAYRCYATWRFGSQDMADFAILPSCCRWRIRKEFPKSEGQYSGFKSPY
Protocol: Alternate Method for IL-1β Release Assay
THP-1 cells (ATCC Cat #285-IF-100) are plated in 96 well plates at a concentration of 200,000 cells per well and allowed to differentiate in RPMI-1640 media (ATCC Cat #30-2001) containing 10% FBS, 100 IU/mL penicillin, 100 ug/mL streptomycin, 100 ng/mL LPS and 100 ng/mL IFN-γ for 16 hours. Following differentiation, the cells are treated for an additional 2 hours in RPMI-1640 media containing 100 IU/mL penicillin, 100 ug/mL streptomycin and fresh LPS at 100 ng/mL. The cells are then pretreated for 30 minutes with the compound of interest at the appropriate concentration in RPMI media containing 100 IU/mL penicillin, 100 ug/mL streptomycin. Following the pretreatment 2′,3′-O-(4-benzoylbenzoyl)-adenosine 5′-triphosphate (Sigma Aldrich Cat# B6396) is added to a final concentration of 250 uM and the cells incubated for an additional 45 minutes. 30 uL of cell supernatant is then collected and IL-1β levels determined via ELISA (R&D systems Cat. # HSLB50) according to manufacturers recommendations using the Tecan Safire plate reader. Background adjusted IL-1β levels of drug treated and non-treated cells are used to calculate the percent inhibition.

inhibition at 0.1 µM | SMILES
25 to 50% | COc1cccc(C(=O)N2CCc3c(ncnc3NCC34CC5CC(CC(C5)C3)C4)C2)c1 [Compound 105]
> 75% | CCS(=O)(=O)N1CCc2c(ncnc2NCC23CC4CC(CC(C4)C2)C3)C1 [Compound 9]
> 75% | O=C(C1CC1)N1CCc2c(ncnc2NCC23CC4CC(CC(C4)C2)C3)C1 [Compound 115, 4-[(Adamantan-1-ylmethyl)-amino]-5,8-dihydro-6H-pyrido[3,4-d]pyrimidin-7-yl-cyclopropyl-methanone]
> 75% | O=S(=O)(c1ccccc1F)N1CCc2c(ncnc2NCC23CC4CC(CC(C4)C2)C3)C1 [Compound 24]

same assay, conditions: P2X7; 0.1 μM compound (symbols + to ++++); read-out: IL-1β % inhib @ 0.1 μM

inhibition at 0.1 µM | SMILES
0 to 25% | O=C(OCc1cscn1)N1CCc2c(ncnc2NCC23CC4CC(CC(C4)C2)C3)C1 [Compound 331]
50 to 75% | O=C(OCC1CCCO1)N1CCc2c(ncnc2NCC23CC4CC(CC(C4)C2)C3)C1 (stereo not shown) [Compound 341]
> 75% | CN(CC(=O)N1CCc2c(ncnc2NCC23CC4CC(CC(C4)C2)C3)C1)Cc1ccccc1 [Compound 260]
50 to 75% | O=C(OCc1ccc(F)cc1)N1CCc2c(ncnc2NCC23CC4CC(CC(C4)C2)C3)C1 [Compound 327]
50 to 75% | O=C(OCc1ccoc1)N1CCc2c(ncnc2NCC23CC4CC(CC(C4)C2)C3)C1 [Compound 340]
0 to 25% | Cc1cc(COC(=O)N2CCc3c(ncnc3NCC34CC5CC(CC(C5)C3)C4)C2)no1 [Compound 330]
0 to 25% | O=C(OCc1ccccn1)N1CCc2c(ncnc2NCC23CC4CC(CC(C4)C2)C3)C1 [Compound 342]

same assay, conditions: P2X7; 0.3 μM compound (asterisk symbols); read-out: IL-1β % inhib @ 0.3 μM

inhibition at 0.3 µM | SMILES
25 to 50% | O=C(c1ccc(C(F)(F)F)cc1F)N1CCc2c(ncnc2NCC23CC4CC(CC(C4)C2)C3)C1 [Compound 121]
0 to 25% | CCCN1CCc2c(ncnc2NCC23CC4CC(CC(C4)C2)C3)C1 [Compound 166]
0 to 25% | CC(=O)N1CCC(C(=O)N2CCc3c(ncnc3NCC34CC5CC(CC(C5)C3)C4)C2)CC1 [Compound 148]
25 to 50% | COc1ccc(S(=O)(=O)N2CCc3c(ncnc3NCC34CC5CC(CC(C5)C3)C4)C2)cc1 [Compound 10]
25 to 50% | O=C(c1ccc(Cl)cc1)N1CCc2c(ncnc2NCC23CC4CC(CC(C4)C2)C3)C1 [Compound 82]
0 to 25% | COc1ccc(CN2CCc3c(ncnc3NCC34CC5CC(CC(C5)C3)C4)C2)cc1OC [Compound 177]
25 to 50% | O=S(=O)(c1cc(Cl)ccc1F)N1CCc2c(ncnc2NCC23CC4CC(CC(C4)C2)C3)C1 [Compound 62]
> 75% | O=C(c1cc(F)ccc1F)N1CCc2c(ncnc2NCC23CC4CC(CC(C4)C2)C3)C1 [Compound 134]
0 to 25% | O=S(=O)(c1ccc(OC(F)(F)F)cc1)N1CCc2c(ncnc2NCC23CC4CC(CC(C4)C2)C3)C1 [Compound 16]
0 to 25% | O=C(c1cc(C(F)(F)F)ccc1Cl)N1CCc2c(ncnc2NCC23CC4CC(CC(C4)C2)C3)C1 [Compound 126]
0 to 25% | O=C(Cc1ccccc1Br)N1CCc2c(ncnc2NCC23CC4CC(CC(C4)C2)C3)C1 [Compound 153]
> 75% | O=S(=O)(c1ccc(Oc2ccccn2)cc1)N1CCc2c(ncnc2NCC23CC4CC(CC(C4)C2)C3)C1 [Compound 29]
0 to 25% | COc1ccc(-c2ccc(S(=O)(=O)N3CCc4c(ncnc4NCC45CC6CC(CC(C6)C4)C5)C3)cc2)cc1 [Compound 35]
> 75% | CC(C)(C)c1ccc(C(=O)N2CCc3c(ncnc3NCC34CC5CC(CC(C5)C3)C4)C2)cc1 [Compound 152]
0 to 25% | O=S(=O)(Cc1ccc(F)cc1)N1CCc2c(ncnc2NCC23CC4CC(CC(C4)C2)C3)C1 [Compound 40]
25 to 50% | O=C(c1ccc2ccccc2n1)N1CCc2c(ncnc2NCC23CC4CC(CC(C4)C2)C3)C1 [Compound 154]
0 to 25% | O=S(=O)(c1ccccc1C(F)(F)F)N1CCc2c(ncnc2NCC23CC4CC(CC(C4)C2)C3)C1 [Compound 51]
25 to 50% | O=C(COc1ccc(Cl)cc1)N1CCc2c(ncnc2NCC23CC4CC(CC(C4)C2)C3)C1 [Compound 119]
0 to 25% | CN1CCOc2cc(S(=O)(=O)N3CCc4c(ncnc4NCC45CC6CC(CC(C6)C4)C5)C3)ccc21 [Compound 17]

same assay, conditions: P2X7; 0.3 μM compound (symbols * to ****); read-out: IL-1β % inhib @ 0.3 μM

inhibition at 0.3 µM | SMILES
> 75% | Cc1cccc(CN2CCc3c(ncnc3NCC34CC5CC(CC(C5)C3)C4)C2)c1 [Compound 217]
> 75% | CC(C)(C)CN1CCc2c(ncnc2NCC23CC4CC(CC(C4)C2)C3)C1 [Compound 211]
0 to 25% | Brc1ccccc1CN1CCc2c(ncnc2NCC23CC4CC(CC(C4)C2)C3)C1 [Compound 228]
0 to 25% | COc1ccc(CCN(C)CC(=O)N2CCc3c(ncnc3NCC3C4CC5CC(C4)CC3C5)C2)cc1OC (stereo not shown) [Compound 297]
0 to 25% | CN(CCC#N)CC(=O)N1CCc2c(ncnc2NCC2C3CC4CC(C3)CC2C4)C1 (stereo not shown) [Compound 277]
25 to 50% | N#Cc1ccc(CN2CCc3c(ncnc3NCC34CC5CC(CC(C5)C3)C4)C2)cc1 [Compound 214]
> 75% | Brc1cccc(CN2CCc3c(ncnc3NCC34CC5CC(CC(C5)C3)C4)C2)c1 [Compound 225]
> 75% | CN(CCc1ccccc1)CC(=O)N1CCc2c(ncnc2NCC2C3CC4CC(C3)CC2C4)C1 (stereo not shown) [Compound 284]
0 to 25% | CN1CCC(N(C)CC(=O)N2CCc3c(ncnc3NCC3C4CC5CC(C4)CC3C5)C2)C1 (stereo not shown) [Compound 314]
> 75% | COc1cc(CN2CCc3c(ncnc3NCC34CC5CC(CC(C5)C3)C4)C2)ccc1F [Compound 240]
> 75% | O=C(c1cnn(-c2ccccc2)c1C(F)(F)F)N1CCc2c(ncnc2NCC23CC4CC(CC(C4)C2)C3)C1 [Compound 255]
0 to 25% | COc1ccc(CN2CCc3c(ncnc3NCC34CC5CC(CC(C5)C3)C4)C2)cc1OCc1ccccc1 [Compound 203]
0 to 25% | O=C(CN1CCN(Cc2ccccc2)CC1)N1CCc2c(ncnc2NCC2C3CC4CC(C3)CC2C4)C1 (stereo not shown) [Compound 271]
0 to 25% | FC(F)Oc1ccc(CN2CCc3c(ncnc3NCC34CC5CC(CC(C5)C3)C4)C2)cc1 [Compound 232]
0 to 25% | O=C(CN1CCCCCC1)N1CCc2c(ncnc2NCC2C3CC4CC(C3)CC2C4)C1 (stereo not shown) [Compound 275]
0 to 25% | COc1ccc(F)c(CN2CCc3c(ncnc3NCC34CC5CC(CC(C5)C3)C4)C2)c1 [Compound 239]
0 to 25% | FC(F)(F)c1ccc(CN2CCc3c(ncnc3NCC34CC5CC(CC(C5)C3)C4)C2)cc1 [Compound 215]

same assay, conditions: P2X7; at 0.03 μM (asterisk symbols); read-out: IL-1β % inhib @ 0.3 μM or @ 0.03 μM

inhibition at 0.03 µM | SMILES
50 to 75% | C[C@H](NC(=O)OC(C)(C)C)C(=O)N1CCc2c(ncnc2NCC(O)C23CC4CC(CC(C4)C2)C3)C1 (stereo partly drawn) [Compound 708, {(S)-2-[4-(2-Adamantan-1-yl-2-hydroxy-ethylamino)-5,8-dihydro-6H-pyrido[3,4-d]pyrimidin-7-yl]-1-methyl-2-oxo-ethyl}-carbamic acid tert-butyl ester]
0 to 25% | CC(C)(C)OC(=O)N[C@@H](Cc1ccccc1)C(=O)N1CCc2c(ncnc2NCC(O)C23CC4CC(CC(C4)C2)C3)C1 (stereo partly drawn) [Compound 709, {(S)-2-[4-(2-Adamantan-1-yl-2-hydroxy-ethylamino)-5,8-dihydro-6H-pyrido[3,4-d]pyrimidin-7-yl]-1-benzyl-2-oxo-ethyl}-carbamic acid tert-butyl ester]

Reference: patent US20100022531A1, “NOVEL COMPOUNDS AS P2X7 MODULATORS AND USES THEREOF” (RENOVIS, INC., priority 2005, published 2010)
